# Reference: publication PMC5219620 (International Journal for Parasitology: Drugs and Drug …, 2016)
# Tested on: L6 cells
# Experiment: AlamarBlue in vitro compound toxicity in L6 cells
# Type: cell-based, rat
# Conditions: upper bound of TI over T. copemani G1, G2 and T. cruzi
row,SMILES,"Therapeutic index (TI), in general over all trypanosomes tested"
1,"Nc1nc(N)nc(Nc2ccc([As]3SCC(CO)S3)cc2)n1 (centres unmarked) [Melarsoprol, (2-(4-(4,6-diamino-1,3,5-triazin-2-ylamino)phenyl)-1,3,2-dithiarsolan-4-yl)methanol]",< 12.1
2,"CCCCCCCCCCCCCCCCOP(=O)([O-])OCC[N+](C)(C)C [Miltefosine, hexadecylphosphocholine]",< 2.4
